Measurements: article PMC11191095, “QSAR Reveals Decreased Lipophilicity of Polar Residues Determines the Selectivity of Antimicrobial Peptide Activity” (ACS Omega, 2024)
Where a SMILES comes first, the peptide text is derived from it.

Assays:
C. auris TDG 1912 = experiment: microbe, parasite or virus in culture; format: cell-based, Candida auris
In short: (§1)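 Peptides 128→2 μg/mL, 2-fold series; inoculum ~5 × 10^5 CFU/mL from overnight culture (OD600 0.01, mixed 1:1). MHB non-cation-adjusted for bacteria, RPMI 1640 + 2% glucose for fungi. 37 °C, 20 h, OD600. MIC50/MIC90 at 50%/90% inhibition; n ≥ 3.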

C. tropicalis NCPF 8760 = experiment: microbe, parasite or virus in culture; format: cell-based
In short: as §1

C. albicans NCPF 3281 = experiment: microbe, parasite or virus in culture; format: cell-based
In short: as §1

C. krusei NCPF 3876 = experiment: microbe, parasite or virus in culture; format: cell-based
In short: as §1

C. glabrata NCPF 8018 = experiment: microbe, parasite or virus in culture; format: cell-based
In short: as §1

[1] = system: C. parapsilosis NCPF 3209; experiment: microbe, parasite or virus in culture; format: cell-based
In short: as §1

[2] = RP-HPLC ElutionTime as indicator of hydrophobicity; format: physicochemical; details: indicator of overall hydrophobicity; semipreparative RP-HPLC, Waters SymmetryPrep C8, water/ACN gradient with 0.1% TFA, 8 mL/min, 25 °C, 254 nm
Protocol: Crude peptides, made up to 10 mg/mL in 0.1% TFA (v/v) in ddH2O, were subjected to preparative RP-HPLC purification on an Agilent 1100 system, with elution in gradient. A gradient program at a flow rate of 8 mL/min and column temperature of 25 °C was used to achieve elution with solvent A (0.1% trifluoroacetic acid (TFA) in water (v/v)) and solvent B (0.1% TFA in 100% acetonitrile (ACN) (v/v)). The elution program was as follows: (1) At 0–73 min, 100% solvent A to 0% solvent B; (2) at 73–77 min, 40% solvent A to 60% solvent B; (3) at 77–93 min, 10% solvent A to 90% solvent B; (4) at 93–105 min, 100% solvent A to 0% solvent B. Data collected were the retention time of the major fraction for each peptide in minutes as RP-HPLC ElutionTime (ElutionTime). Absorbance was detected at 254 nm, and fractions were collected manually. The fractions collected were spun in a speed-vac to remove ACN and the contents lyophilized. After freeze-drying for 24 h the peptides were dissolved in 10% (v/v) acetic acid before being lyophilized for a second time and then stored at −20 °C.
Molecular descriptors used in the QSAR analysis included: charge, sequence length, overall lipophilicity (L), lipophilicity contributed by the polar or nonpolar residues (LP and LN), summation of the side chain surface areas of the total peptide, polar or nonpolar residues (SCSA, SCSAP, and SCSAN), the molecular weight of the entire peptide, polar or nonpolar residues (Mw, MwP, and MwN), count of small lipophilic residues (CSL) or aromatic residues (CAR), the total number of hydrogen bond donor and acceptor centers (HBtot, HBdon, and HBacc), the total number of rotatable bonds (#RotBonds) and various amphipathicity descriptors (LP/L, LP/LN, L/LN, Q/L, Q/LN, SCSAP/SCSAN, MwP/MwN, Q/CSL, and Q/CAR) (Suppl. Table S1). Experimentally determined characteristics included ElutionTime as an indicator of overall peptide hydrophobicity and the CD structure of each peptide determined in POPG/POPE lipids representing Gram-negative membranes, POPG lipids for Gram-positive membranes, and SDS micelles for fungal membranes. AMPs with an α-helical structure were labeled 4, β-sheets were labeled 3, β-turns and mixed conformations were labeled 2, and disordered structures were labeled 1.

S. aureus (MRSA) 1199B = experiment: microbe, parasite or virus in culture; format: cell-based, Staphylococcus aureus; details: S. aureus (MRSA) 1199B (R); shown in µM
In short: as §1

E. coli NCTC 12923 = experiment: microbe, parasite or virus in culture; format: cell-based, Escherichia coli; details: E. coli NCTC 12923 (S); shown in µM
In short: as §1

E. coli LEC001 = experiment: microbe, parasite or virus in culture; format: cell-based, Escherichia coli; details: E. coli LEC001 (R); shown in µM
In short: as §1

human erythrocytes = experiment: In vitro hemolytic activity; format: cell-based; details: human erythrocytes in PBS, 1 h, 37 °C, OD550; from dose response curves
In short: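 Serial peptide dilutions in PBS mixed 1:1 with fresh erythrocytes, 1 h at 37 °C; supernatant OD550 measured after centrifugation. Hemolysis normalized to 0.1% Triton X-100 (full lysis) and PBS (none); HC10 and HC50 taken from dose–response curves.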

HaCat cell line = experiment: In vitro HaCat cytotoxicity (MTT); format: cell-based, human; details: 21 h exposure, OD570, relative to untreated control
In short: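 HaCat keratinocytes were first screened with peptide at 256 μg/mL for 21 h at 37 °C, and a dose-response was run only when cytotoxicity reached p < 0.0001. Viability was read by MTT (3 h, OD570) relative to untreated control, and LC50 was taken from the dose-response curves.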

[3] = system: S. aureus (MRSA) NCTC 13616; experiment: microbe, parasite or virus in culture; format: cell-based, Staphylococcus aureus; details: S. aureus (MRSA) NCTC 13616 (R); shown in µM
In short: as §1

S. aureus (MRSA) USA300 = experiment: microbe, parasite or virus in culture; format: cell-based, Staphylococcus aureus; details: S. aureus (MRSA) USA300 (R); shown in µM
In short: as §1

[4] = system: S. aureus (MSSA) ATCC 9144; experiment: microbe, parasite or virus in culture; format: cell-based, Staphylococcus aureus; details: S. aureus (MSSA) ATCC 9144 (S); shown in µM
In short: as §1

K. pneumoniae M6 = experiment: microbe, parasite or virus in culture; format: cell-based, Klebsiella pneumoniae; details: K. pneumoniae M6 (S); shown in µM
In short: as §1

K. pneumoniae NCTC 13368 = experiment: microbe, parasite or virus in culture; format: cell-based, Klebsiella pneumoniae; details: K. pneumoniae NCTC 13368 (R); shown in µM
In short: as §1

A. baumannii AYE = experiment: microbe, parasite or virus in culture; format: cell-based, Acinetobacter baumannii; details: A. baumannii AYE (R); shown in µM
In short: as §1

A. baumannii ATCC 17978 = experiment: microbe, parasite or virus in culture; format: cell-based, Acinetobacter baumannii; details: A. baumannii ATCC 17978 (S); shown in µM
In short: as §1

P. aeruginosa NCTC 13437 = experiment: microbe, parasite or virus in culture; format: cell-based, Pseudomonas aeruginosa; details: P. aeruginosa NCTC 13437 (R); shown in µM
In short: as §1

P. aeruginosa PAO1 = experiment: microbe, parasite or virus in culture; format: cell-based, Pseudomonas aeruginosa; details: P. aeruginosa PAO1 (S)
In short: as §1

[5] = C. auris TDG 1912, 50% growth inhibition, RPMI 1640 + 2% glucose, 37 °C, 20 h, OD600
[6] = C. tropicalis NCPF 8760, shown in µM
[7] = C. albicans NCPF 3281, shown in µM
[8] = C. krusei NCPF 3876, shown in µM
[9] = C. glabrata NCPF 8018, shown in µM
[10] = C. parapsilosis NCPF 3209, shown in µM

CC(C)[C@H](NC(=O)CNC(=O)[C@H](CCCNC(=N)N)NC(=O)[C@@H](N)CCCNC(=N)N)C(=O)N[C@@H](CS)C(=O)N[C@@H](CCCNC(=N)N)C(=O)N[C@@H](CS)C(=O)N[C@H](C(=O)N[C@@H](CS)C(=O)N[C@@H](CCCNC(=N)N)C(=O)N[C@@H](CCCNC(=N)N)C(N)=O)C(C)C [BTD11a] (H-RRGVCRCVCRR-NH2; N-terminus assumed)
Modal MIC50 (C. auris TDG 1912; [5]): 64 µg/mL | Modal MIC50 (C. auris TDG 1912; TDG 1912, 20 h): 47 µM | Modal MIC90 (C. auris TDG 1912; TDG 1912, 20 h): > 94 µM | Modal MIC50 (C. tropicalis NCPF 8760; C. tropicalis NCPF 8760, 50% growth inhibition, RPMI 1640 + 2% glucose, 37 °C, 20 h): 1 µg/mL | Modal MIC90 (C. tropicalis NCPF 8760; C. tropicalis NCPF 8760, 90% growth inhibition, RPMI 1640 + 2% glucose, 37 °C, 20 h): 2 µg/mL | Modal MIC50 (C. tropicalis NCPF 8760; NCPF 8760, 20 h): 0.7 µM | Modal MIC90 (C. tropicalis NCPF 8760; NCPF 8760, 20 h): 1.5 µM | Modal MIC50 (C. albicans NCPF 3281; C. albicans NCPF 3281, 50% growth inhibition, RPMI 1640 + 2% glucose, 37 °C, 20 h): 32 µg/mL | Modal MIC90 (C. albicans NCPF 3281; C. albicans NCPF 3281, 90% growth inhibition, RPMI 1640 + 2% glucose, 37 °C, 20 h): 64 µg/mL | Modal MIC50 (C. albicans NCPF 3281; NCPF 3281, 20 h): 23.5 µM | Modal MIC90 (C. albicans NCPF 3281; NCPF 3281, 20 h): 47 µM | Modal MIC50 (C. krusei NCPF 3876; C. krusei NCPF 3876, 50% growth inhibition, RPMI 1640 + 2% glucose, 37 °C, 20 h): 32 µg/mL | Modal MIC90 (C. krusei NCPF 3876; C. krusei NCPF 3876, 90% growth inhibition, RPMI 1640 + 2% glucose, 37 °C, 20 h): 32 µg/mL | Modal MIC50 (C. krusei NCPF 3876; NCPF 3876, 20 h): 23.5 µM | Modal MIC90 (C. krusei NCPF 3876; NCPF 3876, 20 h): 23.5 µM | Modal MIC50 (C. glabrata NCPF 8018; C. glabrata NCPF 8018, 50% growth inhibition, RPMI 1640 + 2% glucose, 37 °C, 20 h): 16 µg/mL | Modal MIC90 (C. glabrata NCPF 8018; C. glabrata NCPF 8018, 90% growth inhibition, RPMI 1640 + 2% glucose, 37 °C, 20 h): 32 µg/mL | Modal MIC50 (C. glabrata NCPF 8018; NCPF 8018, 20 h): 11.8 µM | Modal MIC90 (C. glabrata NCPF 8018; NCPF 8018, 20 h): 23.5 µM | Modal MIC50 ([1]; C. parapsilosis NCPF 3209, 50% growth inhibition, RPMI 1640 + 2% glucose, 37 °C, 20 h): 4 µg/mL | Modal MIC90 ([1]; C. parapsilosis NCPF 3209, 90% growth inhibition, RPMI 1640 + 2% glucose, 37 °C, 20 h): 16 µg/mL | Modal MIC50 ([1]; NCPF 3209, 20 h): 2.9 µM | Modal MIC90 ([1]; NCPF 3209, 20 h): 11.8 µM | ElutionTime (RP-HPLC retention time of major fraction) [2]: 16 min | Modal MIC (S. aureus (MRSA) 1199B): > 94 µM

CC[C@H](C)[C@H](N)C(=O)N[C@@H](CC(C)C)C(=O)N[C@@H](CCCCN)C(=O)N[C@@H](CCCCN)C(=O)N[C@H](C(=O)N[C@@H](Cc1c[nH]c2ccccc12)C(=O)N[C@@H](CCC(=O)O)C(=O)NCC(=O)N[C@H](C(=O)N[C@@H](CCCCN)C(=O)N[C@@H](CO)C(=O)N[C@@H](CC(C)C)C(=O)N[C@@H](Cc1ccccc1)C(N)=O)[C@@H](C)CC)[C@@H](C)CC [K3-IsCTa] (H-ILKKIWEGIKSLF-NH2)
Modal MIC (E. coli NCTC 12923): 5 µM | Modal MIC (E. coli LEC001): 5 µM | HC10 (concentration causing 10% hemolysis) (human erythrocytes): 84 µg/mL | Modal MIC50 (C. auris TDG 1912; [5]): > 128 µg/mL | Modal MIC90 (C. auris TDG 1912; C. auris TDG 1912, 90% growth inhibition, RPMI 1640 + 2% glucose, 37 °C, 20 h, OD600): > 128 µg/mL | Modal MIC50 (C. auris TDG 1912; C. auris TDG 1912, shown in µM): > 79.5 µM | Modal MIC90 (C. auris TDG 1912; C. auris TDG 1912, shown in µM): > 79.5 µM | Modal MIC50 (C. tropicalis NCPF 8760; [6]): 2.5 µM | Modal MIC90 (C. tropicalis NCPF 8760; [6]): 5 µM | Modal MIC50 (C. albicans NCPF 3281; [7]): 19.9 µM | Modal MIC90 (C. albicans NCPF 3281; [7]): 39.8 µM | Modal MIC50 (C. krusei NCPF 3876; [8]): 9.9 µM | Modal MIC90 (C. krusei NCPF 3876; [8]): 19.9 µM | Modal MIC50 (C. glabrata NCPF 8018; [9]): 39.8 µM | Modal MIC90 (C. glabrata NCPF 8018; [9]): 39.8 µM | Modal MIC50 [1, 10]: 39.8 µM | Modal MIC90 [1, 10]: 39.8 µM | % HaCat cell death at initial screening (256μg/mL) ± SD (HaCat cell line): 104.1 ± 11.9% | Modal MIC (S. aureus (MRSA) 1199B): 5 µM | Modal MIC [3]: 5 µM | Modal MIC (S. aureus (MRSA) USA300): 9.9 µM | Modal MIC [4]: 5 µM | Modal MIC (K. pneumoniae M6): 9.9 µM | Modal MIC (K. pneumoniae NCTC 13368): 9.9 µM | Modal MIC (A. baumannii AYE): 5 µM | Modal MIC (A. baumannii ATCC 17978): 2.5 µM | Modal MIC (P. aeruginosa NCTC 13437): 39.8 µM | Modal MIC (P. aeruginosa PAO1; MHB, 37 °C, 20 h, OD600, min. three biological repeats): > 128 µg/mL | Modal MIC (P. aeruginosa PAO1; shown in µM): > 79.5 µM
